# Assay results published in patent US20170056379A1, “METHOD OF USING DOPAMINE REUPTAKE INHIBITORS AND THEIR ANALOGS FOR TREATING DIABETES SYMPTOMS AND DELAYING OR […]-[…]” (CALIPER LIFE SCIENCES, INC., priority 2009, published 2017).
# Entries after “also recorded” stand apart in the source; their conditions may differ.
# Legend:
# Type in all cases: in vivo
# FVB strain of mice [1] = test: Mediation of hyperglycemic conditions: blood glucose and body mass in high fat diet mice; settings: 10 mg/kg p.o. daily six days a week, after 4 weeks of treatment
# Text: Mediation of hyperglycemic conditions—FVB strain of mice were used in this study. In our previous study (unpublished), we noted that the FVB strain provides a broad phenotypic window for most parameters of human diabetic conditions similar to C57B1/6. For instance, there was a noted weight gain and obesity induced with high and intermediate fat diets. A persistent high fat diet induces relatively robust hyperglycemic conditions and inefficient glucose disposal but with little noted effects on metabolic rate. There is little circadian impact and changes in activity patterns with the high fat diet.
# Twenty FVB mice (˜12 weeks of age) were randomly separated into two groups (n=10). One group (of ten mice) was fed a high fat diet (ResearchDiets, New Brunswick, N.J., and Cat. #D12492); with the following caloric components: 20 percent protein; 20 percent carbohydrate; and 60 percent fat; 5.24 kcal/gram. Another group was fed with regular rodent chow (Labdiet, Richmond, Ind., product code 5010); 28.7 percent protein, 12.7 percent fat, and 58.6 percent carbohydrate; 3.43 kcal/gram. After seven-weeks, blood glucose levels (and body weight) of the two different groups were examined. […] The group fed on the high fat diet clearly developed a hyperglycemic condition. The difference in body mass was also clearly significant.
# Each of the two groups were then further separated into two subgroups (n=5). For the high fat diet group, the separation of the animals from the hyperglycemic/high fat diet group into two sub-groups was normalized based on the blood glucose levels. One group, designated as high fat-D, were treated with a dopamine reuptake inhibitor (3-(phenylpropyl)-sydnonimine-N-phenylcarbamoyl), the other group, designated as high fat-N were treated with vehicle (30% captosol, 1% Tween (Tween® 20, a polyoxyethylene sorbitan esters available from Sigma) and 1% 1N HCl in H2O; hereafter referred to as vehicle). For the normal chow group, the separation was random but similarly designated and separated into drug treated (Normal-D) and vehicle controls (Normal-N). […]
# FVB strain of mice [2] = test: Home-cage health and behavior; settings: high-fat-diet-drug-treated group, in contrast to the high-fat-diet-vehicle-treated group
# Text: Home-cage health and behavior—This is not a […] measurement but the behavior pattern that we noticed during the study. All 4 groups of animals were housed in pairs or trios according to stratification of either treated with drug or vehicle. For three of the 4 groups, e.g. Normal Diet-drug-treated, Normal Diet-vehicle-treated, and high-fat-diet-drug-treated, the animals appear to be healthy, were docile to handlers and non-aggressive with each other. However the high-fat-diet-vehicle-treated group started to develop underbelly lesions, bite marks, and aggressive behavior towards littermates. This pattern of behavior became especially noticeable after overnight fasting (in order for fasting blood glucose level). In fact, after the above mentioned second examination (examination of fasting blood glucose level after 4 weeks of drug treatment), one of the mice in the high-fat-diet-vehicle-treated group had to be euthanized due to wounds and lesions. The remainders (of the four mice) were subsequently housed individually. These changes of behavior patterns and or behavior oddities are likely indicative of neurological changes under pre-diabetic or diabetic conditions.
# FVB strain of mice [3] = test: Mediation of diabetic-induced hypoalgesia (Hot-plate assay); settings: for (Mean − Mean0)/Std0 (Wilcoxon rank sums, hot plate latency) / Score Mean (Wilcoxon rank sums, hot plate latency) / Score Sum (Wilcoxon rank sums, hot plate latency): hot plate 48° C.
# Description: Mediation of diabetic-induced hypoalgesia (Hot-plate assay)—Mice were brought to the testing room and acclimatized for an hour before test. Pain reflexes in response to a thermal stimulus are measured using a Hot Plate Analgesia Meter from Harvard Apparatus. The plate surface was maintained at 48° C. that was measured by a built-in digital thermometer. Mice were placed on the hot plate which is surrounded by a clear acrylic cage with the Start/Stop trigger on the timer. […] For each subject, the test was performed three times with about 30 minute rest between tests. Animals were tested one at a time and were not habituated to the apparatus prior to testing.
# FVB strain of mice [4] = test: Mediation of diabetic hypoalgesia (Tail-flick assay); settings: for (Mean − Mean0)/Std0 (Wilcoxon rank sums, tail-flick latency) / Score Mean (Wilcoxon rank sums, tail-flick latency) / Score Sum (Wilcoxon rank sums, tail-flick latency): 5.0 mg/kg p.o. an hour before test
# Description: Mediation of diabetic hypoalgesia (Tail-flick assay)—Mice were brought to the testing room, acclimatized and administered 3-(phenylpropyl)-sydnonimine-N-phenylcarbamoyl (5.0 mg/kg; p.o.) an hour before test. Pain reflexes in response to a thermal stimulus are measured using a tail-flick analgesic meter with a built in stop-timer from Columbus Instruments. Latencies to respond for the thermal stimulation is recorder. For each subject, the test was performed three times with about 30 minute rests between tests. Animals are tested one at a time and are not habituated to the apparatus prior to testing.
structure (smiles),measurement,setting,value
CC(Cc1ccccc1)[n+]1cc([N-]C(=O)Nc2ccccc2)on1 (centres unmarked) [3-(phenylpropyl)-sydnonimine-N-phenylcarbamoyl],body mass of high fat diet groups compared with Normal Diet groups,FVB strain of mice [1],still noticeably higher than the groups on the Normal Diet regardless of the drug exposure
same,blood glucose levels of drug treated groups compared with respective sham treated groups,FVB strain of mice [1]; high fat and Normal Diet groups,lower levels of blood glucose than their respective sham treated groups
same,blood glucose levels of high fat diet drug treated mice compared with Normal Diet group,"FVB strain of mice [1]; high fat diet, 10 mg/kg",indistinguishable from the group of mice fed a Normal Diet; also recorded: no discernable differences
same,home-cage health and behavior,FVB strain of mice [2],"remained healthy, docile and playful with littermates"
same,thermal responses of high-fat-diet-drug-treated subjects compared with Normal Diet-vehicle-treated (hot plate),FVB strain of mice [3]; FIG. 3,virtually no difference was observed
same,effect on hypoalgesic conditions induced by diabetic conditions (hot plate test),"FVB strain of mice [3]; FIG. 3, high fat diet mice",attenuated the hypoalgesic
same,"(Mean − Mean0)/Std0 (Wilcoxon rank sums, hot plate latency)",FVB strain of mice [3]; High Fat-D group,−1.528
same,"Score Mean (Wilcoxon rank sums, hot plate latency)",FVB strain of mice [3]; High Fat-D group,6.600
same,"Score Sum (Wilcoxon rank sums, hot plate latency)",FVB strain of mice [3]; High Fat-D group,33.000
same,"(Mean − Mean0)/Std0 (Wilcoxon rank sums, hot plate latency)",FVB strain of mice [3]; Normal-D group,1.898
same,"Score Mean (Wilcoxon rank sums, hot plate latency)",FVB strain of mice [3]; Normal-D group,14.200
same,"Score Sum (Wilcoxon rank sums, hot plate latency)",FVB strain of mice [3]; Normal-D group,71.000
same,thermal responses of high-fat-diet-drug-treated subjects compared with Normal Diet-vehicle-treated (tail-flick),FVB strain of mice [4]; FIG. 4,virtually no difference was observed
same,effect on hypoalgesic conditions induced by diabetic conditions (tail-flick test),"FVB strain of mice [4]; FIG. 4, high fat diet mice",attenuated the hypoalgesic
same,"(Mean − Mean0)/Std0 (Wilcoxon rank sums, tail-flick latency)",FVB strain of mice [4]; High Fat-D group,−2.268
same,"Score Mean (Wilcoxon rank sums, tail-flick latency)",FVB strain of mice [4]; High Fat-D group,5.000
same,"Score Sum (Wilcoxon rank sums, tail-flick latency)",FVB strain of mice [4]; High Fat-D group,25.000
same,"(Mean − Mean0)/Std0 (Wilcoxon rank sums, tail-flick latency)",FVB strain of mice [4]; Normal-D group,−0.139
same,"Score Mean (Wilcoxon rank sums, tail-flick latency)",FVB strain of mice [4]; Normal-D group,9.600
same,"Score Sum (Wilcoxon rank sums, tail-flick latency)",FVB strain of mice [4]; Normal-D group,48.000
